Like-named read-outs stand apart in the source and are kept apart here.
Columns and labels:
[1] = biological target: T1, human group 1B PLA2 (hps PLA2) (Homo sapiens, UniProt P04054); assay: Fluorimetric PPyrPM assay for group 1B PLA2 inhibition (Example 12); type: biochemical
T1 construct: made in house; host or cells: E. coli
Description: (§1) In this example, a fluorimetric assay procedure was used to evaluate the indole and indole-related compounds of the invention as inhibitors of group 1B phospholipase A2 (PLA2) from human, mouse and porcine. A description of this assay is found in articles: Leslie, C C and Gelb, M H (2004) Methods in Molecular Biology “Assaying phospholipase A2 activity”, 284:229-242; Singer, A G, et al. (2002) Journal of Biological Chemistry “Interfacial kinetic and binding properties of the complete set of human and mouse groups I, II, V, X, and XII secreted phospholipases A2”, 277:48535-48549, which are incorporated herein as references.
(§2) In general, this assay used a phosphatidylmethanol substrate with a pyrene fluorophore on the terminal end of the sn-2 fatty acyl chain. Without being bound by theory, close proximity of the pyrenes from neighboring phospholipids in a phospholipid vesicle caused the spectral properties to change relative to that of monomeric pyrene. Bovine serum albumin was present in the aqueous phase and captured the pyrene fatty acid when it is liberated from the glycerol backbone owing to the PLA2-catalyzed reaction. However, a potent inhibitor can inhibit the liberation of pyrene fatty acid from the glycerol backbone. […] The effect of a given inhibitor and inhibitor concentration on human, mouse and porcine phospholipase was determined.
(§3) Recombinant human and mouse group 1B PLA2 were cloned and expressed in E. coli as insoluble inclusion bodies. The inclusion bodies were isolated and purified by sonicating cell pellet in lysis buffer (50 mM Tris-HCl pH 7.0, 250 mM NaCl, 0.5% Triton 100), centrifugation at 12,000×g, and washing three times in washing buffer (20 mM Tris-HCl pH 7.0, 250 mM NaCl, 0.5% Triton 100). Then the inclusion bodies were dissolved in dissolving buffer (50 mM Tris-HCl pH 7.0, 250 mM NaCl, 6 M Guanidine-HCl, 1 mM DTT) and dialyzed four times against 10 volumes of refolding buffer (20 mM Tris-HCl pH 7.0, 250 mM NaCl, 0.5M Guanidine-HCl, 5% (w/w) Glycerol, 2 mM reduced glutathione and 0.4 mM oxidized glutathione) at 4° C. The correctly refolded proteins were concentrated using Amicon Stirred cell under nitrogen pressure (<70 psi) and dialyzed against 10 volumes of 50 mM Tris-HCl pH 7.0, 250 mM NaCl and 5% (w/w) glycerol. Human and mouse group 1B PLA2 were further purified by High S ion exchange and gel filtration columns.
(§4) The following reagents and equipments were obtained from commercial vendors: • 1. Porcine group 1B phospholipase A2 • 2. 1-hexadecanoyl-2-(1-pyrenedecanoyl)-sn-glycero-3-phosphomethanol (PPyrPM) • 3. Bovine serum albumin (BSA, fatty acid free) • 4. 2-Amino-2-(hydroxymethyl)-1,3-propanediol, hydrochloride (Tris-HCl) • 5. Calcium chloride • 6. Potassium chloride • 7. Solvents: DMSO, toluene, isopropanol, ethanol • 8. Molecular Devices SPECTRAmax microplate spectrofluorometer • 9. Costar 96 well black wall/clear bottom plate
(§5) The following reagents were prepared: • 10. PPyrPM stock solution (1 mg/ml) in toluene:isopropanol (1:1) • 11. ILY104 inhibitor stock solution (10 mM) in DMSO • 12. 3% (w/v) bovine serum albumin (BSA) • 13. Stock buffer: 50 mM Tris-HCl, pH 8.0, 50 mM KCl and 1 mM CaCl2
(§6) The following procedure was performed to evaluate the inhibitory potency of the evaluated compounds. • 14. An assay buffer was prepared by adding 3 ml 3% BSA to 47 ml stock buffer. • 15. Solution A was prepared by adding serially diluted inhibitors to the assay buffer. Inhibitors were three-fold diluted in stock buffer in a series of 8 from 15 uM. • 16. Solution B was prepared by adding human, mouse or porcine PLA2 to the assay buffer. This solution was prepared immediately before use to minimize enzyme activity loss. • 17. Solution C was prepared by adding 30 ul PPyrPM stock solution to 90 ul ethanol, and then all 120 ul of PPyrPM solution was transferred drop-wise over approximately 1 min to the continuously stirring 8.82 ml assay buffer to form a final concentration of 4.2 uM PPyrPM vesicle solution. • 18. […]

[2] = biological target: T2, mouse group 1B PLA2 (mps PLA2) (Mus musculus, UniProt Q9Z0Y2); assay: as above; type: biochemical
T2 construct: made in house; host or cells: E. coli
Description: as §1, §2, §3, §4, §5, §6

[3] = biological target: T3, porcine group 1B PLA2 (pps PLA2) (Sus scrofa, UniProt P00592); assay: as above; type: biochemical
T3 construct: purchased
Description: as §1, §2, §4, §5
The following procedure was performed to evaluate the inhibitory potency of the evaluated compounds. • 14. An assay buffer was prepared by adding 3 ml 3% BSA to 47 ml stock buffer. • 15. Solution A was prepared by adding serially diluted inhibitors to the assay buffer. Inhibitors were three-fold diluted in stock buffer in a series of 8 from 15 uM. • 16. Solution B was prepared by adding human, mouse or porcine PLA2 to the assay buffer. This solution was prepared immediately before use to minimize enzyme activity loss. • 17. Solution C was prepared by adding 30 ul PPyrPM stock solution to 90 ul ethanol, and then all 120 ul of PPyrPM solution was transferred drop-wise over approximately 1 min to the continuously stirring 8.82 ml assay buffer to form a final concentration of 4.2 uM PPyrPM vesicle solution. • 18. The SPECTRAmax microplate spectrofluorometer was set at 37° C. • 19. 100 ul of solution A was added to each inhibition assay well of a costar 96 well black wall/clear bottom plate • 20. 100 ul of solution B was added to each inhibition assay well of a costar 96 well black wall/clear bottom plate. • 21. 100 ul of solution C was added to each inhibition assay well of a costar 96 well black wall/clear bottom plate. • 22. The plate was incubated inside the spectrofluorometer chamber for 3 min. • 23. The fluorescence was read using an excitation of 342 nm and an emission of 395 nm.
Evaluated compounds were tested in duplicate and their values were averaged to plot the inhibition curve and calculate the IC50. Compared to uninhibited controls, lower fluorescent signal at an emission of 395 nm in test reactions evidenced inhibition of PLA2. […] Compounds initially found to be active were repeated to confirm their inhibitory activity. […]

[4] = Mouse pharmacokinetic study, IV vs oral (Example 18); type: in vivo, male CD-1 mice; conditions: PO 30 mg/kg vs IV 3 mg/kg, serum by LC/MS/MS; for bioavailability: male, CD-1, mouse
Protocol: The plasma exposure of male CD-1 mice to indole and indole-related test articles (TAs) following intravenous (IV, 3 mg/kg) and oral (PO, 30 mg/kg) routes of administration was measured. This model was used to investigate the bioavailability of indole and indole-related TAs in mouse. Mice were selected for the study since they are an accepted species frequently used in pre-clinical evaluation of drugs intended for human use.
Male CD-1 mice (7-8 weeks old) were obtained from Charles River Laboratories (Wilmington, Mass.). Two groups (N=18 and 27) of male CD-1 mice were used for the study. Upon arrival, the animals were placed on Rodent Diet 5001 (Purina Mills, Inc., St. Louis, Mo.).
On study day (−1), indole and indole-related TAs were formulated for oral or IV dosing by mixing the formulation components with test article in the proportions described in Table 10.1. The components were mixed by vortexing and sonicating in a warming bath for 60 minutes. Animals were fasted overnight prior to start of the study. On study day (1), formulations were sonicated for an hour to make sure that no visible particles were present prior to dosing, or if present were evenly distributed in suspension. Formulated test article were stirred continuously during dosing.
All animals were weighed on study day (1) and the body weights were recorded and used for dose calculation. The animals were dosed by either PO or IV route as outlined in Table 10.2. Blood samples (0.5 mL) were collected at specified time intervals into labeled, yellow-capped Microtainer tubes. The tubes were centrifuged (8,000×g, 10 min). Serum was then pipetted off into labeled Eppendorf® tubes and frozen at −80° C. Clinical observations were recorded as needed.
Analysis of serum samples was performed by LC/MS/MS (Waters Quattro Premier, Milford, Mass.). Areas under curves (AUC) were calculated using Graphpad Prism Version 4. Bioavailability was calculated using the following equation: (Bioavailability)=(AUC0-t,oral/AUC0-t,iv)×(Doseiv/Doseoral)×100
where AUC0-t=total area under curve at the last measurable time point

[5] = human pancreas secreted PLA2, read-out: ILYPSA IC50 hps PLA2
[6] = mouse pancreas secreted PLA2, read-out: ILYPSA IC50 mps PLA2
[7] = porcine pancreas secreted PLA2, read-out: ILYPSA IC50 pps PLA2

T3 sequence (P00592 23-146): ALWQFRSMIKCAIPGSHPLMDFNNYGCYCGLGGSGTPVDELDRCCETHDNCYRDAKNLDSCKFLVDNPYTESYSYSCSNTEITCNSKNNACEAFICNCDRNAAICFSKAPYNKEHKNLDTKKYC
T2 sequence (Q9Z0Y2 23-146): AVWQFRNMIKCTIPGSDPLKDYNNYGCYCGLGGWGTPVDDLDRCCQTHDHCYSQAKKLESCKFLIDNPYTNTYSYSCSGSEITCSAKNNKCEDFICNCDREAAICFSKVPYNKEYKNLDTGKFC
T1 sequence (P04054 23-148): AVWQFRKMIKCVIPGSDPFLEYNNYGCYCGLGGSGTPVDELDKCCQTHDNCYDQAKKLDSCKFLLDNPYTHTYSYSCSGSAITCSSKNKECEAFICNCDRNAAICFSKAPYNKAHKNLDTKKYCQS

Compound | IC50 [1, 5] [nM] | IC50 [2, 6] [nM] | IC50 [3, 7] [nM] | Bioavailability (%) [4] [%] | bioavailability [4] [%] | bioavailability ([4]; in vivo) [%] | IC50 [1] [nM] | IC50 [2] [nM] | IC50 [3] [nM]
Cc1c(C(=O)C(N)=O)c2c(OCC(=O)O)cccc2n1CCCCCCCCCCCCOc1cc(OCCCCCCCCCCCCn2c(C)c(C(=O)C(N)=O)c3c(OCC(=O)O)cccc32)cc(OCCCCCCCCCCCCn2c(C)c(C(=O)C(N)=O)c3c(OCC(=O)O)cccc32)c1 [ILY-V-32, 2,2,′,2″-(1,1′,1″-(12,12′,12″-(benzene-1,3,5-triyltris(oxy))tris(dodecane-12,1-diyl))tris(3-(2-amino-2-oxoacetyl)-2-methyl-1H-indole-4,1-diyl))tris(oxy)triacetic acid] | 60 | 130 | 90 | 0.00 |  |  |  |  | 
Cc1c(C(=O)C(N)=O)c2c(OCC(=O)O)cccc2n1CCCCCCCCCCCCSCCCCCCCCSCCCCCCCCCCCCn1c(C)c(C(=O)C(N)=O)c2c(OCC(=O)O)cccc21 [ILY-V-26, 2,2′-(1,1′-(12,12′-(Octane-1,8-diylbis(sulfanediyl))bis(dodecane-12,1-diyl))bis(3-(2-amino-2-oxoacetyl)-2-methyl-1H-indole-4,1-diyl))bis(oxy)diacetic acid] | 240 | 340 | 260 |  | 0 |  |  |  | 
Cc1c(C(=O)C(N)=O)c2c(OCC(=O)O)cccc2n1CCCCCCCCCCCCOc1ccc(C(C)(C)c2ccc(OCCCCCCCCCCCCn3c(C)c(C(=O)C(N)=O)c4c(OCC(=O)O)cccc43)cc2)cc1 [ILY-V-30, 2,2′-(1,1′-(12,12′-(4,4′-(propane-2,2-diyl)bis(4,1-phenylene))bis(oxy)bis(dodecane-12,1-diyl))bis(3-(2-amino-2-oxoacetyl)-2-methyl-1H-indole-4,1-diyl))bis(oxy)diacetic acid] | 430 | 190 | < 20 |  |  | 0 |  |  | 
Cc1c(C(=O)C(N)=O)c2c(OCC(=O)O)cccc2n1CCCCCCCCCCCCOc1ccccc1OCCCCCCCCCCCC(=O)O [ILY-V-41, 12-{2-[12-(3-Aminooxalyl-4-carboxymethoxy-2-methyl-indol-1-yl)-dodecyloxy]-phenoxy}-dodecanoic acid] | 1540 | 1600 | 1140 |  |  | 1.62 |  |  | 
Cc1c(C(=O)C(N)=O)c2c(OCC(=O)NS(C)(=O)=O)nccc2n1Cc1ccccc1-c1ccccc1 [ILY-II-14, 2-(3-(2-amino-2-oxoacetyl)-1-(biphenyl-2-ylmethyl)-2-methyl-1H-pyrrolo[3,2-c]pyridin-4-yloxy)-N-(methylsulfonyl)acetamide] |  |  |  |  | 14.7 |  | 690 | 590 | 40
Cc1c(C(=O)C(N)=O)c2c(OC(C(=O)O)C(C)C)cccc2n1CCCCCCCCCCCCOc1ccccc1OCCCCCCCCCCCCn1c(C)c(C(=O)C(N)=O)c2c(OC(C(=O)O)C(C)C)cccc21 (stereo not shown) [ILY-V-33, 2,2′-(1,1′-(12,12′-(1,2-phenylenebis(oxy))bis(dodecane-12,1-diyl))bis(3-(2-amino-2-oxoacetyl)-2-methyl-1H-indole-4,1-diyl))bis(oxy)bis(3-methylbutanoic acid)] | 220 | 200 | 240 |  |  | 8.75 |  |  | 
Cc1c(C(=O)C(N)=O)c2c(OCC(=O)O)cccc2n1Cc1ccc(-c2ccccc2)cc1 [ILY-V-3] | 1260 | 770 | 210 |  |  |  |  |  | 
Cc1c(C(=O)C(N)=O)c2c(OCC(=O)O)ccc(N)c2n1Cc1ccccc1 [ILY-IV-35] | 8840 | 1740 | 320 |  |  |  |  |  | 
Cc1c(C(=O)C(N)=O)c2c(OCC(=O)O)cccc2n1CCCCCCCCCCCCSCCCCCCCCCCCCn1c(C)c(C(=O)C(N)=O)c2c(OCC(=O)O)cccc21 [IL-V-29, 2,2′-(1,1′-(12,12′-thiobis(dodecane-12,1-diyl))bis(3-(2-amino-2-oxoacetyl)-2-methyl-1H-indole-4,1-diyl))bis(oxy)diacetic acid] | 460 | 790 | 530 |  |  |  |  |  | 
Cc1c(C(=O)C(N)=O)c2c(OCC(=O)NS(=O)(=O)CCCC(=O)O)cccc2n1Cc1ccccc1 [ILY-IV-40, 4-[2-(3-Aminooxalyl-1-benzyl-2-methyl-1H-indol-4-yloxy)-acetylsulfamoyl]-butyric acid] |  |  |  | 0.50 |  |  |  |  | 
Cc1c(C(=O)C(N)=O)c2c(OCC(=O)O)nccc2n1Cc1ccccc1-c1ccccc1 [ILY-II-4, (3-Aminooxalyl-1-biphenyl-2-ylmethyl-2-methyl-1H-pyrrolo[3,2-c]pyridin-4-yloxy)-acetic acid] |  |  | < 20 |  |  |  | 80 | 70 | 

Reference: patent US20070135383A1, “Phospholipase inhibitors, including multi-valent phospholipase inhibitors, and use thereof, including as lumen-localized phospholipase inhibitors” (priority 2005, published 2007)
